Data: PubChem BioAssay AID192 (DTP/NCI, 2004)
Where “and” joins values, the source holds several entries; their conditions need not be identical. Equal entries are not always repeated. Inconclusive results and toxic doses are left out. Rule for the calls: active = survival T/C of 150% or more; inactive = T/C below 125% in these data.

Test system: BDF1 mice, B16 melanoma ip, median survival T/C
Experiment: NCI In Vivo Anticancer Drug Screen. Data for tumor model B16 Melanoma (intraperitoneal) in B6D2F1 (BDF1) mice
Conditions: endpoint: median survival time, higher = longer survival
Method in brief: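 Values are ratios of treated (T) to vehicle-control (C) measurements of survival or tumor size in tumor-bearing mice.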

[1] = dose: 75.0 mg/kg/injection, schedule: Q01DX009 (ip), vehicle: Klucel (hydroxypropylcellulose) (HPC)
[2] = dose: 150.0 mg/kg/injection, schedule: Q01DX009 (ip), vehicle: Klucel (hydroxypropylcellulose) (HPC)
[3] = dose: 300.0 mg/kg/injection, schedule: Q01DX009 (ip), vehicle: Klucel (hydroxypropylcellulose) (HPC)
[4] = dose: 100.0 mg/kg/injection, schedule: Q01DX009 (ip), vehicle: Klucel (hydroxypropylcellulose) (HPC)
[5] = dose: 6.25 mg/kg/injection, schedule: Q01DX009 (ip), vehicle: saline with Tween-80
[6] = dose: 12.5 mg/kg/injection, schedule: Q01DX009 (ip), vehicle: saline with Tween-80
[7] = dose: 25.0 mg/kg/injection, schedule: Q01DX009 (ip), vehicle: saline with Tween-80
[8] = dose: 10.0 mg/kg/injection, schedule: Q01DX009 (ip), vehicle: saline with Tween-80
[9] = dose: 6.25 mg/kg/injection, schedule: Q01DX009 (ip), vehicle: saline
[10] = dose: 12.5 mg/kg/injection, schedule: Q01DX009 (ip), vehicle: saline
[11] = dose: 200.0 mg/kg/injection, schedule: Q01DX009 (ip), vehicle: Klucel (hydroxypropylcellulose) (HPC)
[12] = dose: 50.0 mg/kg/injection, schedule: Q01DX009 (ip), vehicle: saline with Tween-80
[13] = dose: 100.0 mg/kg/injection, schedule: Q01DX009 (ip), vehicle: saline with Tween-80
[14] = dose: 6.25 mg/kg/injection, schedule: Q01DX009 (ip), vehicle: Klucel (hydroxypropylcellulose) (HPC)
[15] = dose: 12.5 mg/kg/injection, schedule: Q01DX009 (ip), vehicle: Klucel (hydroxypropylcellulose) (HPC)
[16] = dose: 25.0 mg/kg/injection, schedule: Q01DX009 (ip), vehicle: Klucel (hydroxypropylcellulose) (HPC)
[17] = dose: 50.0 mg/kg/injection, schedule: Q01DX009 (ip), vehicle: Klucel (hydroxypropylcellulose) (HPC)
[18] = dose: 200.0 mg/kg/injection, schedule: Q01DX009 (ip), vehicle: saline with Tween-80
[19] = dose: 40.0 mg/kg/injection, schedule: Q01DX009 (ip), vehicle: saline with Tween-80
[20] = dose: 80.0 mg/kg/injection, schedule: Q01DX009 (ip), vehicle: saline with Tween-80
[21] = dose: 12.5 mg/kg/injection, schedule: Q01DX009 (ip), vehicle: water
[22] = dose: 25.0 mg/kg/injection, schedule: Q01DX009 (ip), vehicle: water
[23] = dose: 2.5 mg/kg/injection, schedule: Q01DX009 (ip), vehicle: saline
[24] = dose: 5.0 mg/kg/injection, schedule: Q01DX009 (ip), vehicle: saline
[25] = dose: 10.0 mg/kg/injection, schedule: Q01DX009 (ip), vehicle: saline
[26] = dose: 50.0 mg/kg/injection, schedule: Q04DX003 (ip), vehicle: Klucel (hydroxypropylcellulose) (HPC)
[27] = dose: 100.0 mg/kg/injection, schedule: Q04DX003 (ip), vehicle: Klucel (hydroxypropylcellulose) (HPC)
[28] = dose: 200.0 mg/kg/injection, schedule: Q04DX003 (ip), vehicle: Klucel (hydroxypropylcellulose) (HPC)
[29] = dose: 20.0 mg/kg/injection, schedule: Q01DX009 (ip), vehicle: saline
[30] = dose: 25.0 mg/kg/injection, schedule: Q01DX009 (ip), vehicle: saline

Measured: T/C

Cc1ccc(NC(=O)COc2ccc(Cl)cc2)c([N+](=O)[O-])c1
inactive: [1] 95 % of control | [2] 97 % of control | [3] 90 % of control

CCCN(CCC)C(=O)c1ccncc1
inactive: [4] 93 % of control | dose: 400.0 mg/kg/injection, schedule: Q01DX009 (ip), vehicle: Klucel (hydroxypropylcellulose) (HPC) 95 % of control

Cc1cc(/C=C\c2ccc3ccccc3[n+]2C)c(O)c2ncccc12
inactive: [5] 106 % of control | [6] 101 % of control | [7] 101 % of control

Cc1cc([NH-])c([NH-])cc1C.[Cl][Pt+2][Cl]
inactive: dose: 1.25 mg/kg/injection, schedule: Q01DX009 (ip), vehicle: saline with Tween-80 108 % of control | dose: 2.5 mg/kg/injection, schedule: Q01DX009 (ip), vehicle: saline with Tween-80 123 % of control
active: [8] 161 % of control

O=C(O)C1(C(=O)O)CCCCC1.[NH2-].[NH2-].[Pt+2]
active: [9] 159 % of control | [10] 188 % of control

CC(C)c1ccc(NC(=O)Nc2cccc3ccccc23)cc1
inactive: [4] 100 % of control | [11] 97 % of control

COC1=C(OC)C(=O)C(SC/C=C(\C)CCCC(C)CCCC(C)CCCC(C)C)=CC1=O (centres undefined)
inactive: [6] 108 % of control | [7] 105 % of control | [12] 110 % of control | [13] 115 % of control

COc1ccc2c(Cc3ccccc3)cncc2c1O
inactive: [14] 97 % of control | [15] 99 % of control | [16] 102 % of control | [17] 104 % of control

O=C(Nc1ccc(Cl)cc1)Nc1ccccc1F
inactive: [13] 89 % of control | [18] 86 % of control

CCn1cnc2c(=S)nc[nH]c21
inactive: [5] 97 % of control | [6] 86 % of control | [7] 95 % of control | [12] 89 % of control and 104 % of control

COc1cc2cc[n+]3c(C)c4cc5c(cc4cc3c2cc1OC)OCO5 (tested in a mixture with another compound)
inactive: [9] 94 % of control | [10] 105 % of control

NNC(=S)N/N=C/c1ccc([N+](=O)[O-])s1
inactive: [16] 88 % of control | [4] 89 % of control

COc1cc2c(c(OC)c1OC)-c1ccc(SCc3ccccc3)c(=O)cc1[C@@H](NC(C)=O)CC2
inactive: dose: 1.56 mg/kg/injection, schedule: Q01DX009 (ip), vehicle: Klucel (hydroxypropylcellulose) (HPC) 91 % of control and 111 % of control | dose: 3.12 mg/kg/injection, schedule: Q01DX009 (ip), vehicle: Klucel (hydroxypropylcellulose) (HPC) 102 % of control and 107 % of control | [14] 101 % of control and 106 % of control | [15] 109 % of control and 111 % of control | [16] 113 % of control

COCC(=O)CC(C)=O
inactive: [1] 122 % of control | [2] 113 % of control | [3] 105 % of control

[Cl][Pt+2][Cl].[NH-]c1ccc([N+](=O)[O-])cc1[NH-]
inactive: dose: 5.0 mg/kg/injection, schedule: Q01DX009 (ip), vehicle: saline with Tween-80 103 % of control | [8] 107 % of control | dose: 20.0 mg/kg/injection, schedule: Q01DX009 (ip), vehicle: saline with Tween-80 107 % of control | [19] 118 % of control | [20] 115 % of control

OCC1OC(n2nnc3cc[nH]c(=S)c32)C(O)C1O (centres undefined)
inactive: dose: 3.13 mg/kg/injection, schedule: Q01DX009 (ip), vehicle: water 97 % of control | dose: 6.25 mg/kg/injection, schedule: Q01DX009 (ip), vehicle: water 113 % of control | [21] 101 % of control | [22] 101 % of control

O=C(Nc1ccc2c(c1)Cc1cc(Br)ccc1-2)C(F)(F)F
inactive: dose: 25.0 mg/kg/injection, schedule: Q04DX003 (ip), vehicle: saline with Tween-80 103 % of control | dose: 50.0 mg/kg/injection, schedule: Q04DX003 (ip), vehicle: saline with Tween-80 109 % of control | dose: 100.0 mg/kg/injection, schedule: Q04DX003 (ip), vehicle: saline with Tween-80 95 % of control and 96 % of control | dose: 400.0 mg/kg/injection, schedule: Q04DX003 (ip), vehicle: saline with Tween-80 86 % of control

ClC[P+](c1ccccc1)(c1ccccc1)c1ccccc1
inactive: [23] 120 % of control | [24] 106 % of control | [25] 101 % of control

N=C(N)SCc1cccc([N+](=O)[O-])c1
inactive: [15] 93 % of control | [16] 103 % of control | [17] 97 % of control

CC(=O)Oc1ccc[nH]c1=O
inactive: dose: 75.0 mg/kg/injection, schedule: Q01DX009 (ip), vehicle: saline 91 % of control and 94 % of control | dose: 150.0 mg/kg/injection, schedule: Q01DX009 (ip), vehicle: saline 91 % of control | [18] 105 % of control | dose: 200.0 mg/kg/injection, schedule: Q01DX009 (ip), vehicle: saline 90 % of control and 95 % of control | dose: 300.0 mg/kg/injection, schedule: Q01DX009 (ip), vehicle: saline 104 % of control and 105 % of control | dose: 400.0 mg/kg/injection, schedule: Q01DX009 (ip), vehicle: saline with Tween-80 105 % of control | dose: 600.0 mg/kg/injection, schedule: Q01DX009 (ip), vehicle: saline with Tween-80 106 % of control

CCOc1ccc(NC(=O)OCCN2CCN(CCc3ccccc3)C(C)C2)cc1 (centres undefined)
inactive: [7] 108 % of control | [12] 113 % of control | [13] 101 % of control

O=C(SCC(NSc1ccccc1[N+](=O)[O-])C(=O)O)c1ccccc1 (centres undefined)
inactive: [26] 113 % of control | [27] 100 % of control | [28] 94 % of control

CSCCC(N)C(=O)O (centres undefined)
inactive: [19] 103 % of control and 106 % of control | [20] 102 % of control and 108 % of control | dose: 160.0 mg/kg/injection, schedule: Q01DX009 (ip), vehicle: saline with Tween-80 113 % of control and 118 % of control | dose: 320.0 mg/kg/injection, schedule: Q01DX009 (ip), vehicle: saline with Tween-80 94 % of control and 100 % of control

NC(=O)c1ncn(C2OC(CO)C(O)C2O)n1 (centres undefined)
inactive: [29] 90 % of control | dose: 40.0 mg/kg/injection, schedule: Q01DX009 (ip), vehicle: saline 102 % of control | [26] 102 % of control | dose: 80.0 mg/kg/injection, schedule: Q01DX009 (ip), vehicle: saline 97 % of control | [27] 95 % of control | dose: 160.0 mg/kg/injection, schedule: Q01DX009 (ip), vehicle: saline 108 % of control | [28] 98 % of control

O=c1[nH]c(=S)[nH]cc1Oc1ccc(I)cc1
inactive: [15] 90 % of control | [16] 86 % of control | [17] 91 % of control

CC(=O)Oc1ccc(N2C(=O)C3C(C2=O)C2c4ccccc4C3C3CCCCN32)cc1 (centres undefined) (tested in a mixture with another compound)
inactive: [21] 103 % of control | [22] 97 % of control | dose: 50.0 mg/kg/injection, schedule: Q01DX009 (ip), vehicle: water 104 % of control | dose: 100.0 mg/kg/injection, schedule: Q01DX009 (ip), vehicle: water 97 % of control

[Br][Ga]([Br])[Br]
inactive: [10] 101 % of control | [30] 96 % of control | dose: 50.0 mg/kg/injection, schedule: Q01DX009 (ip), vehicle: saline 96 % of control

NC(=NCc1ccccc1)c1ccc(N=C(N)c2ccc(C(N)=Nc3ccc(C(N)=NCc4ccccc4)cc3)cc2)cc1
inactive: [23] 97 % of control | [24] 96 % of control | [25] 92 % of control | [29] 96 % of control

COc1cc(/C=C/[N+](=O)[O-])c([N+](=O)[O-])cc1OC
inactive: [9] 102 % of control | [10] 90 % of control | [30] 92 % of control

CC(=O)CC(=O)Nc1cccc(Cl)c1C
inactive: [17] 103 % of control | [4] 96 % of control | [11] 106 % of control
